In patent publication US9388147B2 (Receptos, Inc., priority 2009, dated 2016):
Like-named read-outs stand apart in the source and are kept apart here.

Experiments:
[1] = molecular target: T1, S1P2 (Homo sapiens, UniProt O95136); assay: Specificity over other S1P receptors: S1P2 CRE-bla CHOK1 reporter assay; type: cell-based; settings: S1P2 CRE-bla CHOK1, without Forskolin; read-out: S1P2 agonist value (EC50)
T1 construct: expressed in transfected cells; host or cells: CRE-bla CHOK1
Experimental: (§1) Cells were seeded into 384-well black wall/clear bottom plates at 10^4 cells/well/19.5 μl assay media (DMEM-phenol free, 0.5% charcoal/dextran stripped serum, 2 mM glutamine, 0.1 mM NEAA, 1 mM Na-Pyruvate, 25 mM Hepes) and incubated for 18 hrs at 37° C. in 5% CO2. Dose response curves (10-point) were generated in 10 mM Hepes, 0.1% Pluronic F127, in the presence of Forskolin. Cells were treated with 0.5 μl compound in the presence of 2 μM Forskolin for 4 hrs at 37° C. The FRET-based β-lactamase fluorescent substrate (LiveBLAzer™-FRET B/G Loading Kit CC4-AM; Invitrogen) was prepared according to manufacturer's directions, and incubated with cells for 2 hrs at room temperature. Plates were read at Ex:410/Em:458 and Ex:410/Em:522, and the response ratio determined. Data was analyzed by non-linear regression to determine the EC50 for inhibition of Forskolin induced cAMP.
(§2) To assess compound specificity on other S1P receptors the following cell lines were used: S1P2 CRE-bla CHOK1, S1P3-Gα15 NFAT-bla HEK293T (Invitrogen), S1P4-bla TANGO U2OS (Invitrogen), S1P5-bla TANGO U2OS (Invitrogen). The same assay set up for S1P1 was used but without Forskolin. S1P4 and S1P5 assays were performed in FreeStyle Expression medium (Invitrogen). S1P5 cells were incubated for 48 hrs in prior to treatment with compound.

[2] = molecular target: T2, S1P3 (Homo sapiens, UniProt Q99500); assay: Specificity over other S1P receptors: S1P3-Gα15 NFAT-bla HEK293T reporter assay; type: cell-based; settings: without Forskolin, read-out: S1P3 agonist value (EC50)
T2 construct: host or cells: NFAT-bla HEK293T
T2 sequence (Q99500 whole entry): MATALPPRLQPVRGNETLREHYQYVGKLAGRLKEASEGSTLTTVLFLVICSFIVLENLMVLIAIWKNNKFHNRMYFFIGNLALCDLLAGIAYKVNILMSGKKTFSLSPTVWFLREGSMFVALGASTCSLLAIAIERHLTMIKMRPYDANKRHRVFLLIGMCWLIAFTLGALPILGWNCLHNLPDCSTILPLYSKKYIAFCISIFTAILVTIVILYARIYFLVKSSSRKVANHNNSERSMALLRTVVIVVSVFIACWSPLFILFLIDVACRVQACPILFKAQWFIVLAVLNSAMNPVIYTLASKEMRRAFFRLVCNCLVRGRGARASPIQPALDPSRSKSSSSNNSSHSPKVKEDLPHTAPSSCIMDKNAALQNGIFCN
Experimental: as §1, §2

[3] = molecular target: T3, S1P4 (Homo sapiens, UniProt O95977); assay: Specificity over other S1P receptors: S1P4-bla TANGO U2OS assay; type: cell-based; settings: read-out: S1P4 agonist value (EC50)
T3 construct: Tango fusion (own knowledge: protease cleavage site plus GAL4-VP16 transcription factor at the receptor's C-terminus); host or cells: U2OS (Tango -bla)
T3 sequence (O95977 1-384): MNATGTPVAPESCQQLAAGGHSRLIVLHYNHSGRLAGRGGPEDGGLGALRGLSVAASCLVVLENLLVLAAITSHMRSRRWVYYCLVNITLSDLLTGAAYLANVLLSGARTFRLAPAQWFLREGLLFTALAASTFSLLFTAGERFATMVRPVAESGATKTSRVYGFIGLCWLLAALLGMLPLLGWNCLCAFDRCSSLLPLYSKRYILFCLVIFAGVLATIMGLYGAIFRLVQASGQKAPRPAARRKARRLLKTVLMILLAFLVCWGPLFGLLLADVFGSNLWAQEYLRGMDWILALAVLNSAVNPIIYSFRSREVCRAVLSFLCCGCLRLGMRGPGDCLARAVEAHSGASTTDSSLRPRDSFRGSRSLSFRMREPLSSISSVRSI
Experimental: as §1, §2

[4] = molecular target: T4, S1P5 (Homo sapiens, UniProt Q9H228); assay: Specificity over other S1P receptors: S1P5-bla TANGO U2OS assay; type: cell-based; settings: read-out: S1P5 agonist value (EC50)
T4 construct: Tango fusion (own knowledge: protease cleavage site plus GAL4-VP16 transcription factor at the receptor's C-terminus); host or cells: U2OS (Tango -bla)
T4 sequence (Q9H228 whole entry, the tested form may be a part): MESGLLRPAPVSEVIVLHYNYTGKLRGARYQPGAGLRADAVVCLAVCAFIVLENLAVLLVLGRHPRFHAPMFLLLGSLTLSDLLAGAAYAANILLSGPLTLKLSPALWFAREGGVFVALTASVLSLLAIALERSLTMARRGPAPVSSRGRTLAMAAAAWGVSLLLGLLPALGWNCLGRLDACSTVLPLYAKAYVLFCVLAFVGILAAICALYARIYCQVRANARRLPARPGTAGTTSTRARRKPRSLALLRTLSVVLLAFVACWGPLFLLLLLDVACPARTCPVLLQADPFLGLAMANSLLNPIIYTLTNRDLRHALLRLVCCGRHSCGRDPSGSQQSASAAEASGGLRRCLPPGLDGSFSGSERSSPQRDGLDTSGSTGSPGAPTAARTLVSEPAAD
Experimental: as §1, §2

[5] = test system: CD4 or CD8 positive T cells; assay: Lymphopenia in mice; type: in vivo; settings: female C57BL6 mice, 1 mg/kg oral gavage, area under the effect curve over 24 h
Experimental: In mice: Female C57BL6 mice (Simonsen Laboratories, Gilroy Calif.) were housed in an ALAAC accredited facility and the research was approved by the facilities Institutional Animal Care and Use Committee (IACUC). The animals were acclimated to the laboratory for at least 5 days prior to initiation of experiments. Mice (n=3/compound/time-point) were dosed by oral gavage with 1 mg/kg compound formulated in a vehicle consisting of 5% DMSO/5% Tween 20 and 90% 0.1N HCl. Control mice were dosed PO with the vehicle. Terminal whole blood samples were collected from isoflurane anesthetized mice by cardiac puncture into EDTA. Whole blood was incubated with rat anti-mouse CD16/CD32 (Mouse BD Fc Block, #553141), PE-Rat anti-mouse CD45R/B220 (BD #553089), APC-Cy7-Rat anti-mouse CD8a (BD #557654), and Alexa Fluor647-Rat anti-mouse CD4 (BD #557681) for 30 min on ice. Red blood cells were lysed using BD Pharm Lyse Lysing buffer (#555899) and white blood cells were analyzed by FACS. Lymphopenia was expressed as the % of white blood cells that were CD4 or CD8 positive T cells. The overall lymphopenia response over 24 h was estimated by calculating the area under the effect curve (AUEC) using the linear trapezoidal rule.

[6] = Evaluation of therapeutic index in rats: 5 or 14 day toxicology study, lung to body weight ratio; type: in vivo, Sprague-Dawley rat
Experimental: All studies were conducted in non-fasted male and female Sprague-Dawely rats (Simonsen Laboratories). Rats were housed in an AAALAC accredited facility and the research was approved by the facilities Institutional Animal Care and Use Committee (IACUC). The animals were acclimated to the laboratory for at least 5 days prior to initiation of experiments.
(§3) The compounds listed in Table 6 were formulated as suspensions in a vehicle consisting of 0.5% carboxymethyl cellulose (Acros Organics) in purified water (pH adjusted to ˜2.2 with hydrochloric acid). The same formulation was used in the rat lymphopenia and toxicology studies described below. The concentration of each compound in suspension was verified to be within ±10% of the target concentration by HPLC-UV.
In the toxicology studies, three male and three female rats per group were assigned to dosing groups using body weight based randomization. A control group in each study received vehicle. All animals were dosed orally by gavage on 5 or 14-consecutive days at a dose volume of 5 mL/kg/day. The animals were observed daily for any manifestations of adverse effect. Twenty-four hours after the final study dose, the rats were anesthetized with isoflurane and a terminal blood sample was taken by intra-cardiac puncture for hematology and clinical chemistry evaluation (IDEXX Laboratories, Sacramento, Calif.). The lungs with trachea were collected, weighed, and then prepared for histology by perfusion with 10% neutral buffered formalin via the trachea. The internally fixed lungs were then preserved in 10% neutral buffered formalin and submitted for histological examination (IDEXX).
The dose of each compound resulting in a 10% increase in the lung to terminal body weight ratio was estimated for each compound by linear interpolation. The therapeutic index was estimated as the ratio of the dose producing 10% lung weight increase to the dose producing 50% T-Cell depletion.
(§4) The dose producing a 10% increase in lung to body weight ratio was interpolated from a plot of dose versus lung to body weight. The lymphopenia response was measured 24 hours following the final dose of a 3-5 day multiple dose regimen.

[7] = test system: peripheral T-cell counts; assay: Lymphopenia in rats, 3-5 day multiple dose regimen; type: in vivo, rat; settings: female rats, oral, 24 h after final dose of a 3-5 day multiple dose regimen
Experimental: In rats: Female rats (Simonsen Laboratories, Gilroy Calif.) were housed in an ALAAC accredited facility and the research was approved by the facilities Institutional Animal Care and Use Committee (IACUC). The animals were acclimated to the laboratory for at least 5 days prior to initiation of experiments. Rats (n=3/compound/time-point) were dosed by oral gavage with 1 mg/kg compound formulated in a vehicle consisting of 5% DMS0/5% Tween 20 and 90% 0.1N HCL. Control rats were dosed PO with the vehicle. Whole blood was collected from isoflurane anesthetized rats via the retro-orbital sinus and terminal samples were collected by cardiac puncture into EDTA. Whole blood was incubated with mouse anti-rat CD32 (BD #550271), PE-mouse anti-rat CD45R/B220 (BD #554881), PECy5-mouse anti-rat CD4 (BD #554839), and APC-mouse anti-rat CD8a (eBioscience #17-0084) for 30 minutes on ice. Red blood cells were lysed using BD Pharm Lyse Lysing buffer (#555899) and white blood cells were analyzed with a BD FACSArray. Lymphopenia was expressed as the % of white blood cells that were CD4 or CD8 positive T cells. The overall lymphopenia response over 24 h was estimated by calculating the area under the effect curve (AUEC) using the linear trapezoidal rule.
as §3
Prior to the conduct of toxicology studies, the effect of three to five daily doses of each compound on peripheral T-cell counts of female rats was determined (see lymphopenia measurements in rats above). In these lymphopenia studies, blood samples were collected onto EDTA at intervals after the final study dose. The collection times were not identical for each study, however, all studies included a sample collected 24 hours after the final dose. The lymphopenia data was used as a biomarker to select equally pharmacologically active doses for the subsequent toxicology study. […] The high dose in the toxicology study represented a ≧20-fold increment over the low dose.
as §4

[8] = molecular target: T5, S1P1/EDG1 (Homo sapiens, UniProt P21453); assay: S1P1 CRE-bla CHOK1 reporter assay, inhibition of Forskolin induced cAMP; type: cell-based
T5 sequence (P21453 whole entry): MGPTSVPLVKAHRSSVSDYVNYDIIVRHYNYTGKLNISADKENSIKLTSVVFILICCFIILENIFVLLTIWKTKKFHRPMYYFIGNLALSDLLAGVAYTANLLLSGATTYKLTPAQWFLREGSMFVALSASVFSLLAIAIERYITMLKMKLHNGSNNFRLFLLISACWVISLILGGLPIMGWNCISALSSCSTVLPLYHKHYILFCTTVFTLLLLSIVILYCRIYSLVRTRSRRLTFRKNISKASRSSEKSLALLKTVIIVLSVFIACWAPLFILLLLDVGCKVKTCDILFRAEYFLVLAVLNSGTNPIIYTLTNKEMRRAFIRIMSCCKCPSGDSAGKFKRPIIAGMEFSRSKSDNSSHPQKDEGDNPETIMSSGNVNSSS
Summary of the method: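 Read-out is a FRET β-lactamase substrate (2 h, room temperature) after 4 h, 37 °C compound treatment under 2 μM Forskolin in stable S1P1-transfected CRE-bla CHO-K1 cells. Ten-point curves; non-linear regression gives EC50 for inhibition of Forskolin-stimulated cAMP.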

[9] = molecular target: T6, S1P1 R120A/E121A (Homo sapiens, UniProt P21453, E121A/R120A); assay: Phosphorylated-ERK1/2 In Cell Western, S1P1 R120A/E121A mutant in CHOK1 cells; type: cell-based
T6 construct: expressed in transfected cells; host or cells: CHOK1
T6 sequence (P21453 whole entry R120A/E121A): as the sequence (P21453 whole entry) above, with R120A, E121A counted along it
Experimental: (§5) A. Quick-change mutagenesis with PfuTurbo DNA polymerase (Stratagene) was conducted using S1P1/pcDNA3.1 (Missouri S&T cDNA Resource Centre) as the template. Primers were as follows: […]
(§6) PCR conditions were 15 cycles with the following parameters: 95° C. 30 sec, 58° C. 30 sec, 68° C. for 60 sec. All constructs were sequence verified.
(§7) CHOK1 cells were transfected using Fugene (Roche). Stably expressing mixed pools were selected with 2 mg/ml G418. Expression of functional S1P1/EDG1 receptor was confirmed by cell surface FACS with a S1P1 antibody (R&D Systems, clone 218713). Stable pools were seeded at 40,000 cells/well in a clear bottom 96-well tray, and incubated at 37° C. in 5% CO2 for 18 hrs. Cells were serum-starved in FreeStyle 293 medium (Invitrogen) for 4-6 h, then incubated for 5 min with a dose response of compound, in duplicate. Cells were fixed with 4% paraformaldehyde for 20 min, permeabilized with 0.1% Triton X-100 in PBS (4×5 min washes) and blocked for 1 h in Odyssey Blocking Buffer (LI-COR). All incubations were at room temperature. Cells were incubated for 18 h at 4° C. in Rabbit anti-Phospho-ERK1/2 (Cell Signaling #4377) and Mouse anti-ERK1/2 (Cell Signaling #9107) both diluted 1:800 in Odyssey Blocking Buffer. Plates were washed with 0.1% Tween-20 in PBS and then incubated with Odyssey Blocking Buffer containing IRDye 680-labeled goat anti-rabbit antibody (#926-32221; diluted 1/500) and IRDye 800CW-labeled goat anti-mouse antibody (#926-32210; diluted 1/1000). Plates were washed with 0.1% Tween-20 in PBS, all liquid was removed from the wells and the plates were scanned using a LICOR Odyssey scanner. The phospho-ERK1/2 signal was normalized to the ERK1/2 signal. Data was analyzed by non-linear regression using GraphPad Prism to determine the EC50 of binding.

[10] = molecular target: T7, S1P1 N101A (Homo sapiens, UniProt P21453, N101A); assay: Phosphorylated-ERK1/2 In Cell Western, S1P1 N101A mutant in CHOK1 cells; type: cell-based
T7 construct: expressed in transfected cells; host or cells: CHOK1
T7 sequence (P21453 whole entry N101A): as the sequence (P21453 whole entry) above, with N101A counted along it
Experimental: as §5, §6, §7

[11] = molecular target: T8, S1P1 W269L (Homo sapiens, UniProt P21453, W269L); assay: Phosphorylated-ERK1/2 In Cell Western, S1P1 W269L mutant; type: cell-based
T8 construct: expressed in transfected cells; host or cells: CHOK1
T8 sequence (P21453 whole entry W269L): as the sequence (P21453 whole entry) above, with W269L counted along it
Experimental: as §7, with “The phospho-ERK1/2 signal was normalized to the ERK1/2 signal.” left out, “binding. […]” for “binding.”

[12] = molecular target: T5, S1P1/EDG1; assay: Phosphorylated-ERK1/2 In Cell Western, wild type S1P1 in CHOK1 cells; type: cell-based
Experimental: as §7, with “The phospho-ERK1/2 signal was normalized to the ERK1/2 signal.” left out

[13] = agonist activity range, S1P1 CRE-bla CHOK1, 2 μM Forskolin, read-out: S1P1 ACTIVITY

T1 sequence (O95136 whole entry, species assumed): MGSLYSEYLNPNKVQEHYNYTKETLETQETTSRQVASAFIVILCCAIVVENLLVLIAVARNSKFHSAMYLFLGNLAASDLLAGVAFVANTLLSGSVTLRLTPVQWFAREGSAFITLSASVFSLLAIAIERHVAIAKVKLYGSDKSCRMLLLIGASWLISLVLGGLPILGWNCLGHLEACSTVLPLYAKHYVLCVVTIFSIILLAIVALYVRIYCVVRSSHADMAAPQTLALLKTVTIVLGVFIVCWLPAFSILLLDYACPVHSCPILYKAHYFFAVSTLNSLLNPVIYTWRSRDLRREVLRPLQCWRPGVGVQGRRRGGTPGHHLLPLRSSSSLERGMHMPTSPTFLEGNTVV

Structure (SMILES)	EC50 [1]	EC50 [2]	EC50 [3]	EC50 [4]	Mouse Lymphopenia (AUEC) [5]	Dose Resulting in 10% increase in lung weight ([6]; rats, oral, 5 or 14 consecutive days, interpolated from dose versus lung to body weight)	TI 14 days ([6]; therapeutic index: dose producing 10% lung weight increase / dose producing 50% T-cell depletion, 14 day toxicology study in rats)	Dose Producing 50% lymphopenia [7]	EC50 ([8]; S1P1 CRE-bla CHOK1, with Forskolin, read-out: S1P1 agonist value (EC50))	EC50 [8, 13]	Effect of mutation on binding of compound (in words) ([9]; S1P1 R120A/E121A)	Fold change in EC50 compared to wild type S1P1 ([9]; S1P1 variant R120A/E121A, phospho-ERK1/2)	Effect of mutation on binding of compound (in words) ([10]; S1P1 N101A)	Fold change in EC50 compared to wild type S1P1 ([10]; S1P1 variant N101A, phospho-ERK1/2)	Effect of mutation on binding of compound (in words) [11]	Phosphorylation of ERK1/2 by S1P1 agonist (in words) [12]
CC(C)Oc1ccc(-c2nc(-c3cccc4c3CC[C@@H]4NCCO)no2)cc1C#N [Compound 86, (S)-5-(3-(1-(2-hydroxyethylamino)-2,3-dihydro-1H-inden-4-yl)-1,2,4-oxadiazol-5-yl)-2-isopropoxy benzonitrile]	9.56 µM	9.94 µM	4.19 µM	0.0552 µM	1342	2.7 mg/kg	18	0.15 mg/kg	–	–	–	–	–	–	–	–
CCOc1ccc(-c2nc(-c3cccc4c3CCC4O)no2)cc1OCC (racemic) [Compound 254, (+/−)-4-(5-(3,4,diethoxyphenyl)-1,2,4-oxadiazol-3-yl)-2,3-dihydro-1H-inden-1-ol, reference compound]	5.5 µM	5.27 µM	5.5 µM	0.0568 µM	84	–	–	–	0.16 nM	0.05 to 0.5 nM	–	–	–	–	–	–
CC(C)Oc1ccc(-c2nc(-c3cccc4c3CCC4NCCC(=O)O)no2)cc1C#N (racemic) [Compound 38]	–	–	–	–	–	–	–	–	–	< 0.05 nM	diminishes binding	11	had no effect on binding	2	abolishes binding	induce phosphorylation of ERK1/2
